Assay results: patent publication US10801035B2, “Plants having increased tolerance to herbicides” (BASF SE, priority 2011, dated 2020)

Experiments:
[1] = tested on: transgenic soybean plants (T0 cuttings) expressing heterologous HPPD; assay: Greenhouse testing of transgenic soybean plants (T0 cuttings); assay type: in vivo, Glycine max; design: key: % injury: 0% = no injury, 100% = complete death; settings: two weeks after treatment
Protocol: Transgenic plants expressing heterologous HPPD or HST enzymes are tested for tolerance against coumarone-derivative herbicides in greenhouse experiments.
For post emergence treatment, the test plants are first grown to a height of 3 to 15 cm, depending on the plant habit, and only then treated with the herbicides. For this purpose, the test plants are either sown directly and grown in the same containers, or they are first grown separately and transplanted into the test containers a few days prior to treatment.
For testing of T0 plants, cuttings can be used. In the case of soybean plants, an optimal shoot for cutting is about 7.5 to 10 cm tall, with at least two nodes present. Each cutting is taken from the original transformant (mother plant) and dipped into rooting hormone powder (indole-3-butyric acid, IBA). The cutting is then placed in oasis wedges inside a bio-dome. Wild type cuttings are also taken simultaneously to serve as controls. The cuttings are kept in the biodome for 5-7 days and then transplanted to pots and then acclimated in the growth chamber for two more days. Subsequently, the cuttings are transferred to the greenhouse, acclimated for approximately 4 days, and then subjected to spray tests as indicated.
Depending on the species, the plants are kept at 10-25° C. or 20-35° C. The test period extends over 3 weeks. During this time, the plants are tended and their response to the individual treatments is evaluated. Herbicide injury evaluations are taken at 2 and 3 weeks after treatment. Plant injury is rated on a scale of 0 to 9, 0 being no injury and 9 being complete death. Tolerance to coumarone-derivative herbicides can also be assessed in Arabidopsis. In this case transgenic Arabidopsis thaliana plants are assayed for improved tolerance to coumarone-derivative herbicides in 48-well plates. Seeds are surface sterilized by stirring for 5 min in ethanol+water (70+30 by volume), rinsing one time with ethanol+water (70+30 by volume) and two times with a sterile, deionized water. The seeds are resuspended in 0.1% agar dissolved in water (w/v). Four to five seeds per well are plated on solid nutrient medium consisting of half-strength Murashige Skoog nutrient solution, pH 5.8 (Murashige and Skoog (1962) Physiologia Plantarum 15: 473-497). Compounds are dissolved in dimethylsulfoxid (DMSO) and added to the medium prior solidification (final DMSO concentration 0.1%). Multi well plates are incubated in a growth chamber at 22° C., 75% relative humidity and 110 μmol Phot * m-2 * s-1 with 14: 10 h light: dark photoperiod. Seven to ten days after seeding growth inhibition is evaluated by comparison to wild type plants. Tolerance factor is calculated by dividing the plant growth IC50 value of transgenic plants containing a HPPD and/or HST sequence by that of wildtype plants. Additionally, T1 and T2 transgenic Arabidopsis plants can be tested for improved tolerance to coumarone-derivative herbicides in a greenhouse studies. Herbicide injury scoring is done 2-3 weeks after treatment and is rated on a scale of 0 to 100%, 0% being no injury and 100% being complete death.

Synechococcus HPPD = assay: HPPD activity assay, Synechococcus HPPD; assay type: biochemical; settings: normalized on Hordeum HPPD
Protocol: HPPD produces homogentisic acid and CO2 from 4-hydroxyphenylpyruvate (4-HPP) and O2. The activity assay for HPPD is based on the analysis of homogentisic acid by reversed phase HPLC.
The assay mixture can contain 150 mM potassium phosphate buffer pH 7.0, 50 mM L-ascorbic acid, 1 μM FeSO4 and 7 μg of purified enzyme in a total volume of 1 ml. Inhibitors are dissolved in DMSO (dimethylsulfoxide) to a concentration of 20 mM or 0.5 mM, respectively. From this stock solution serial five-fold dilutions are prepared in DMSO, which are used in the assay. The respective inhibitor solution accounts for 1% of the assay volume. […]
Activities are normalized by setting the uninhibited enzyme activity to 100%. […] values are calculated using non-linear regression. […]
Inhibitors are dissolved in DMSO (dimethylsulfoxide) to a concentration of 0.5 mM. […] IC50 values are calculated using non-linear regression.
Using methods which are described in the above examples or well known in the art, purified, recombinant wildtype HPPD enzymes are characterized with respect to their kinetic properties and sensitivity towards HPPD inhibiting herbicides. Apparent michaelis constants (Km) and maximal reaction velocities (Vmax) are calculated by non-linear regression with the software GraphPad Prism 5 (GraphPad Software, La Jolla, USA) using a substrate inhibition model. […]

## CC1=NOC(c2c(Cl)ccc(C3=C(O)c4ncccc4N(CC(F)F)S3(=O)=O)c2Cl)C1 (stereo not shown) [Inhibitor 1, 3-[2,4-dichloro-3-(3-methyl-4,5-dihydroisoxazol-5-yl)phenyl]-1-(2,2-difluoroethyl)-2,2-dioxo-pyrido[3,2-c]thiazin-4-ol]
[1]; event AV4283 (probably Synechococcus HPPD**, marked: tested at a half rate), dose line 62 g/ha
  Injury evaluation: 20
[1]; event AV4283 (probably Synechococcus HPPD**, marked: tested at a half rate), dose line 125 g/ha
  Injury evaluation: 20
[1]; event AV4283 (probably Synechococcus HPPD**, marked: tested at a half rate), dose line 250 g/ha
  Injury evaluation: 20
[1]; event AV4287 (marked: tested at a half rate), dose line 62 g/ha
  Injury evaluation: 0
[1]; event AV4287 (marked: tested at a half rate), dose line 125 g/ha
  Injury evaluation: 0
[1]; event AV4287 (marked: tested at a half rate), dose line 250 g/ha
  Injury evaluation: 0
[1]; event AV4553 (Hordeum HPPD), dose 62 g/ha
  Injury evaluation: 0
[1]; event AV4553 (Hordeum HPPD), dose 125 g/ha
  Injury evaluation: 10
[1]; event AV4553 (Hordeum HPPD), dose 250 g/ha
  Injury evaluation: 10
[1]; event HT1833 (Arabidopsis HPPD_M335H, plastidic), dose 62 g/ha
  Injury evaluation: 0
[1]; event HT1833 (Arabidopsis HPPD_M335H, plastidic), dose 125 g/ha
  Injury evaluation: 5
[1]; event HT1833 (Arabidopsis HPPD_M335H, plastidic), dose 250 g/ha
  Injury evaluation: 5
[1]; event LG5831** (Arabidopsis HPPD_M335H, plastidic), marked: tested at a half rate, dose line 62 g/ha
  Injury evaluation: 0
[1]; event LG5831** (Arabidopsis HPPD_M335H, plastidic), marked: tested at a half rate, dose line 125 g/ha
  Injury evaluation: 0
[1]; event LG5831** (Arabidopsis HPPD_M335H, plastidic), marked: tested at a half rate, dose line 250 g/ha
  Injury evaluation: 0
[1]; event LG6156 (Synechocystis HPPD), dose 62 g/ha
  Injury evaluation: 0
[1]; event LG6156 (Synechocystis HPPD), dose 125 g/ha
  Injury evaluation: 10
[1]; event LG6156 (Synechocystis HPPD), dose 250 g/ha
  Injury evaluation: 10
[1]; event LJ383, dose 62 g/ha
  Injury evaluation: 10
[1]; event LJ383, dose 125 g/ha
  Injury evaluation: 10
[1]; event LJ383, dose 250 g/ha
  Injury evaluation: 20
[1]; event LJ387 (Hordeum HPPD), dose 62 g/ha
  Injury evaluation: 0
[1]; event LJ387 (Hordeum HPPD), dose 125 g/ha
  Injury evaluation: 0
[1]; event LJ387 (Hordeum HPPD), dose 250 g/ha
  Injury evaluation: 0
[1]; event LJ409, dose 62 g/ha
  Injury evaluation: 10
[1]; event LJ409, dose 125 g/ha
  Injury evaluation: 10
[1]; event LJ409, dose 250 g/ha
  Injury evaluation: 15
Synechococcus HPPD
  Normalized tolerance index (TI): 2.2
